From patent US20060029743A1, “Wood preservatives and methods of wood preservation” (priority 2004, published 2006)
In brackets after ≈: the same amount, converted by molar mass.

What was measured:
Antrodia vaillantii = assay: 6-well plate assay, minimal inhibitory concentration; assay type: cell-based; conditions: Fibroporia vaillantii, 168 h; 6-well agar plate; lowest concentration with no growth after seven days; read-out: Effectiveness at Inhibiting Wood-Rotting Fungi, BR3 (minimal inhibitory concentration)
Protocol: (§1) The minimal inhibitory concentration of fungicides against eight fungi was determined in 6-well microtiter plates. Minimal inhibitory concentration is defined as the lowest concentration at which no fungus growth is evident after seven days. A group of eight fungi were used in a screen to identify potential active ingredients to preserve wood. The eight fungi, their classification, and the growth media used to culture them are listed below:
(§2) Growth media were purchased from Difco (from Beckton Dickinson and Co., Sparks, Md.). The growth media were added to water to 2% w/v and autoclaved at 121° C. for 30 min. Autoclaved media were allowed to cool down to ˜50° C. Test chemicals were dissolved in DMSO (dimethyl sulfoxide) individually at 10 mg/mL to generate stock solutions. An appropriate amount of a stock solution was then added to the appropriate growth medium at 50° C. to make up the test media containing various concentrations of individual test chemicals. 10 mL of the medium was added to each well of a 6-well plate and allowed to solidify at room temperature. For each plate, the first well had no chemical, and the remaining five wells contained a particular test chemical at five different concentrations. Eight such plates were prepared for each chemical, using the eight media listed above for the eight test organisms.
(§3) After the media solidified and cooled, a plug (˜2 mm×2 mm) of agar growth medium with fresh grown mycelium from the appropriate fungal culture was used to inoculate each well. The plate was placed in an incubator, and the growth of the fungus monitored. After 4 to 7 days, the growth was scored manually.

Chaetomium globosum = assay: as above; assay type: cell-based; conditions: Chaetomium globosum, 168 h; 6-well agar plate; lowest concentration with no growth after seven days; read-out: Effectiveness at Inhibiting Wood-Rotting Fungi, SR1 (minimal inhibitory concentration)
Protocol: as §1, §2, §3

Gloeophyllum trabeum = assay: as above; assay type: cell-based; conditions: Gloeophyllum trabeum, 168 h; 6-well agar plate; lowest concentration with no growth after seven days; read-out: Effectiveness at Inhibiting Wood-Rotting Fungi, BR2 (minimal inhibitory concentration)
Protocol: as §1, §2, §3

Irpex lacteus [1] = assay: as above; assay type: cell-based; conditions: Irpex lacteus, 168 h; 6-well agar plate; lowest concentration with no growth after seven days; read-out: Effectiveness at Inhibiting Wood-Rotting Fungi, WR2 (minimal inhibitory concentration)
Protocol: as §1, §2, §3

[2] = system: Phanerochaete chrysosporium; assay: as above; assay type: cell-based; conditions: Phanerodontia chrysosporium, 168 h; 6-well agar plate; lowest concentration with no growth after seven days; read-out: Effectiveness at Inhibiting Wood-Rotting Fungi, WR3 (minimal inhibitory concentration)
Protocol: as §1, §2, §3

Postia placenta [3] = assay: as above; assay type: cell-based; conditions: Rhodonia placenta, 168 h; 6-well agar plate; lowest concentration with no growth after seven days; read-out: Effectiveness at Inhibiting Wood-Rotting Fungi, BR1 (minimal inhibitory concentration)
Protocol: as §1, §2, §3

Trametes versicolor = assay: as above; assay type: cell-based; conditions: Trametes versicolor, 168 h; 6-well agar plate; lowest concentration with no growth after seven days; read-out: Effectiveness at Inhibiting Wood-Rotting Fungi, WR1 (minimal inhibitory concentration)
Protocol: as §1, §2, §3

Postia placenta [4] = assay: Soil block test (AWPA E10-01, modified), SYP blocks; conditions: for Average weight loss: 3 months
Protocol: (§4) For the soil block tests, the protocol listed as AWPA (American Wood Preservers' Association) standard E10-01 was used, with some modifications that are noted.
(§5) For pressure treatment, wood blocks (¾ inch cubes) were made from Southern yellow pine (SYP) or birch dried at about 40° C. to constant weight, and weighed before pressure treatment. In a typical experiment, blocks were submerged in an appropriate treatment solution in an autoclave. A vacuum of 10 to 15 inch Hg (380 to 510 torr) was applied for 30 min, followed by a pressure of 150 psi (1.034 MPa) for 1 hr. The treatment solution was then removed and a vacuum of 10 to 15 inch Hg (380 to 510 torr) was applied again to the blocks for 15 min. Excess treatment solution on the surface was allowed to evaporate (30 min in a laboratory fume hood) before the blocks were either weighed or stored in a sealed plastic bag and weighed at a later time.
(§6) For the soil block test, wood blocks were conditioned in a vented incubator at 40° C. until they reached a constant weight (16 to 18 hrs). Blocks were then autoclaved at 100° C. for 30 min under dry cycle. Soil samples with a water holding capacity of 40% were used for these tests. 60 mL of water and 92-100 g of soil were added into a 228 mL French square bottle, and autoclaved at 121° C. for 30 min. A feeder strip, ⅛″×1⅛″×1⅜″ (˜0.31 cm×2.86 cm×3.49 cm), birch for birch blocks and SYP for SYP blocks, was placed on the top of the soil. A testing block was placed on top of the feeder strip and the bottle contents inoculated with an agar strip (˜3 mm×30 mm) containing freshly grown fungus (listed in the results). For brown rot fungi (Postia placenta), SYP blocks and feeder strips were used. For white rot (Irpex lacteus), birch blocks and feeder strips were used. The bottles were loosely capped and allowed to incubate at ˜75% humidity and 25° C. for 3 months. Then the blocks were removed from the bottles and dried at 40° C. to constant weight in a vented incubator (16-18 hr). The weight of each block was determined and the percent weight loss was calculated.
(§7) Blocks were allowed to age for a week in the fume hood after treatment. Half of the blocks were subjected to leaching with water for an additional week before undergoing the soil block test. For leaching, blocks were placed in a beaker and 30 mL of water per block were added. Blocks were allowed to incubate at room temperature under constant stirring, with daily change of water for one week.
SYP blocks were pressure-treated with this solution as above (Example 2). After treatment, the blocks were divided into groups and allowed to age in the hood for either two days or 14 days. The blocks were then placed in a beaker and submerged under water (50 mL water per block), under constant stirring for two weeks. […]

Irpex lacteus [5] = assay: Soil block test (AWPA E10-01, modified), birch blocks; conditions: for Average weight loss: 3 months
Protocol: as §4, §5, §6, §7

Molecule `C[Si](Cn1cncn1)(c1ccc(F)cc1)c1ccc(F)cc1` [Flusilazole] has an MIC (Antrodia vaillantii) of under 1 µg/mL, an MIC (Chaetomium globosum) of under 1 µg/mL and an MIC (Gloeophyllum trabeum) of 1 to 100 µg/mL (≈ 3.17 to 317 µM). The MIC (Irpex lacteus [1]) was 1 to 100 µg/mL (≈ 3.17 to 317 µM), the MIC [2] was 1 to 100 µg/mL (≈ 3.17 to 317 µM) and the MIC (Postia placenta [3]) was under 1 µg/mL. It also gave an MIC (Trametes versicolor) of under 1 µg/mL, an Average weight loss (Postia placenta [4]; SYP blocks pressure-treated with 50 ppm solution in 5% acetic acid) of 29% and an Average weight loss (Postia placenta [4]; SYP blocks pressure-treated with 100 ppm solution in 5% acetic acid) of 19%. The Average weight loss (Postia placenta [4]; SYP blocks pressure-treated with 200 ppm solution in 5% acetic acid) was 3.3%, the “Protection against decay (in words)” value (Postia placenta [4]; SYP blocks, 200 ppm flusilazole solution) was “protected against decay” and the Average weight loss (Irpex lacteus [5]; birch blocks pressure-treated with 50 ppm solution in 5% acetic acid) was 19.5%. The Average weight loss (Irpex lacteus [5]; birch blocks pressure-treated with 100 ppm solution in 5% acetic acid) was 21.7%, the Average weight loss (Irpex lacteus [5]; birch blocks pressure-treated with 200 ppm solution in 5% acetic acid) was 11% and the “Protection against decay (in words)” value (Irpex lacteus [5]; birch blocks, 200 ppm flusilazole solution) was “significantly protected from decay”.
